Structures can show the parent of a compound that is named as a salt.
Legend:
sonic hedgehog pathway [1] = test: Human hedgehog reporter assay Daoy-GliLuc (DGL); type: cell-based; conditions: Daoy human medulloblastoma cells, gli-luciferase reporter; read-out: Daoy Avg. EC50
Excerpt: (§1) Mouse (TM3: mouse Leydig cells; S12: mouse embryonic mesenchymal cells) and human (Daoy: human medulloblastoma cell; HepM: human embryonic palatal mesenchymal cell) cell lines are used to screen small molecules for their ability to modulate the activity of the sonic hedgehog pathway (Table 1, Table 2, and Table 3). Stable hedgehog pathway reporter cell lines are established by specific antibiotic selection following transfection of a reporter plasmid containing a luciferase gene located directly downstream from the gli promoter. Consequently, any observable changes in cellular luciferase activity may be attributed to changes in sonic hedgehog pathway activity in mouse and human cells, respectively, since gli is the major by-product of this pathway. To calculate activity, we generate an eleven point dose curve for each compound using 1:3 dilutions in 96 well assay plates. Each plate tested also contains low and high control to establish maximal pathway activation so to establish/compare a percentage activation of each tested compound (AMAX) on respective plates.
(§2) Stable hedgehog pathway reporter cell lines are established following specific antibiotic selection following transfection of a reporter plasmid
(§3) In short, typically cells are plated in MicroTiter-plates at 10,000-20,000 cells per well, in growth media (containing 10%-20% FBS). After 48-72 hrs (HGL and DGL respectively) the media in the assay plates is switched to low-serum containing media (0.5% FBS). At that time compounds are added (at 1-5 μM) to the assay plates, in the presence or absence of hedgehog protein (octyl-modified version; 1-5 ng/ml). After another 24 hrs of incubation, the media from the assay plates is discarded and replaced with luciferase assay-mix. Subsequently, plates are incubated at RT for ˜15-30 mins and then read in a luminometer. [note: addition of the Hedgehog protein, although not critical, will sensitize the assay allowing the identification of weak actives].

sonic hedgehog pathway [2] = test: Hedgehog reporter assay (gli-luciferase) in TM3 cells; type: cell-based, mouse; conditions: TM3 mouse Leydig cells, gli-luciferase reporter; read-out: TM3 Avg. EC50
Excerpt: as §1, §2, §3

SMILES | EC50 (sonic hedgehog pathway [1]) [nM] | EC50 (sonic hedgehog pathway [2]) [nM]
CNC1CCC(N(Cc2cc(-c3ccc(C(F)(F)F)cc3)ccc2OC)C(=O)c2sc3ccccc3c2Cl)CC1 (stereo not shown) [Compound 306, 3-Chloro-benzo[b]thiophene-2-carboxylic acid (4-methoxy-4′-trifluoromethyl-biphenyl-3-ylmethyl)-(4-methylamino-cyclohexyl)-amide trifluoroacetate] | < 50 | 50 to 250
CNC1CCC(N(Cc2cc(-c3ccc(OC(F)(F)F)cc3)ccc2OC)C(=O)c2sc3ccccc3c2Cl)CC1 (stereo not shown) [Compound 307, 3-Chloro-benzo[b]thiophene-2-carboxylic acid (4-methoxy-4′-trifluoromethoxy-biphenyl-3-ylmethyl)-(4-methylamino-cyclohexyl)-amide hydrochloride] | < 50 | < 50
CNC1CCC(N(Cc2cc(-c3ccc(Cl)cc3)ccc2OC)C(=O)c2sc3ccccc3c2Cl)CC1 (stereo not shown) [Compound 308, 3-Chloro-benzo[b]thiophene-2-carboxylic acid (4′-chloro-4-methoxy-biphenyl-3-ylmethyl)-(4-methylamino-cyclohexyl)-amide hydrochloride] | < 50 | < 50
CCOc1ccc(-c2ccc(C(F)(F)F)cc2)cc1CN(C(=O)c1sc2ccccc2c1Cl)C1CCC(NC)CC1 (stereo not shown) [Compound 309, 3-Chloro-benzo[b]thiophene-2-carboxylic acid (4-ethoxy-4′-trifluoromethyl-biphenyl-3-ylmethyl)-(4-methylamino-cyclohexyl)-amide hydrochloride] | < 50 | 50 to 250
CCOc1ccc(-c2ccc(OC)cc2)cc1CN(C(=O)c1sc2ccccc2c1Cl)C1CCC(NC)CC1 (stereo not shown) [Compound 312, 3-Chloro-benzo[b]thiophene-2-carboxylic acid (4-ethoxy-4′-methoxy-biphenyl-3-ylmethyl)-(4-methylamino-cyclohexyl)-amide hydrochloride] | 50 to 250 | –
CCOc1ccc(-c2ccccc2)cc1CN(C(=O)c1sc2ccccc2c1Cl)C1CCC(NC)CC1 (stereo not shown) [Compound 313, 3-Chloro-benzo[b]thiophene-2-carboxylic acid (4-ethoxy-biphenyl-3-ylmethyl)-(4-methylamino-cyclohexyl)-amide hydrochloride] | < 50 | 50 to 250
CN[C@H]1CC[C@H](N(Cc2cc(-c3cccc(C(C)=O)c3)ccc2OC)C(=O)c2sc3cccc(F)c3c2Cl)CC1 [Compound 363, 3-Chloro-4-fluoro-benzo[b]thiophene-2-carboxylic acid (3′-acetyl-4-methoxy-biphenyl-3-ylmethyl)-(4-methylamino-cyclohexyl)-amide hydrochloride] | < 50 | < 50

Further lines, results first:

EC50 (sonic hedgehog pathway [1]) [nM] | EC50 (sonic hedgehog pathway [2]) [nM] | SMILES
< 50 | < 50 | CN[C@H]1CC[C@H](N(Cc2cc(-c3ccc(F)cc3)ccc2OC)C(=O)c2sc3ccccc3c2Cl)CC1 [Compound 314, 3-Chloro-benzo[b]thiophene-2-carboxylic acid (4′-fluoro-4-methoxy-biphenyl-3-ylmethyl)-(4-methylamino-cyclohexyl)-amide hydrochloride]
50 to 250 | 250 to 1000 | CNc1ncc(-c2ccc(OC)c(CN(C(=O)c3sc4ccccc4c3Cl)[C@H]3CC[C@H](NC)CC3)c2)cn1 [Compound 322, 3-Chloro-benzo[b]thiophene-2-carboxylic acid[2-methoxy-5-(2-methylamino-pyrimidin-5-yl)-benzyl]-(4-methylamino-cyclohexyl)-amide dihydrochloride]
< 50 | 50 to 250 | CN[C@H]1CC[C@H](N(Cc2cc(-c3cnc(N)nc3)ccc2OC)C(=O)c2sc3ccccc3c2Cl)CC1 [Compound 323, 3-Chloro-benzo[b]thiophene-2-carboxylic acid[5-(2-amino-pyrimidin-5-yl)-2-methoxy-benzyl]-(4-methylamino-cyclohexyl)-amide dihydrochloride]
